Several values for one entry are separate records, joined by “and”; a condition that tells them apart may be missing. Equal values may be shown once.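 Five compound concentrations were applied to cells in 96-well plates for 48 hours; endpoints were derived by simple linear interpolation of the resulting dose-response curve. GI50: concentration for 50% inhibition of growth. TGI marks complete inhibition of growth.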
Experiments:
Test in all cases: NCI tumour cell line growth inhibition, 48 h
SW-620 colon = system: SW-620 colon
HT29 colon = system: HT29 colon
DMS 114 small cell lung = system: DMS 114 small cell lung
EKVX NSCLC = system: EKVX NSCLC
DMS 273 small cell lung = system: DMS 273 small cell lung
T-47D breast = system: T-47D breast
K-562 leukemia = system: K-562 leukemia
RPMI-8226 leukemia = system: RPMI-8226 leukemia
OVCAR-5 ovarian = system: OVCAR-5 ovarian
UACC-257 melanoma = system: UACC-257 melanoma

Compound	TGI (SW-620 colon)	TGI (HT29 colon)	TGI (DMS 114 small cell lung)	TGI (EKVX NSCLC)	TGI (DMS 273 small cell lung)	TGI (T-47D breast)	TGI (K-562 leukemia)	TGI (RPMI-8226 leukemia) [µM]	TGI (OVCAR-5 ovarian)	TGI (UACC-257 melanoma)	GI50 (SW-620 colon) [µM]	GI50 (DMS 114 small cell lung)	GI50 (EKVX NSCLC)	GI50 (T-47D breast)	GI50 (K-562 leukemia)	GI50 (OVCAR-5 ovarian)	GI50 (UACC-257 melanoma)
CC(=O)OC1=CC2(OC(C)=O)CC(C)(C)C1C1C(=O)C=CC(=O)C12 (stereo not given)	> 100 µM	47.9 µM	> 100 µM	> 100 µM	> 100 µM	> 100 µM	> 100 µM	> 100	> 100 µM	> 100 µM	–	–	–	–	–	–	–
CC1OC(CC(=O)O)CC2=C1C(=O)c1c(O)cccc1C2=O (stereo not given)	0.207 µM	0.427 µM	0.288 µM	2.02 µM	0.594 µM	4.4 µM	0.36 µM	0.241	2.86 µM	0.228 µM	–	–	–	–	–	–	–
CC1=Nc2c([nH]c(=S)[nH]c2=O)NC(c2c(Cl)cccc2Cl)C1 (stereo not given)	2.05 µM	2.35 µM	13.8 µM	18.7 µM	4.4 µM	3.21 µM	2.21 µM	4.04	11.9 µM	9.4 µM	–	–	–	–	–	–	–
CC(=O)NC(C=O)C(O[C@H](C)C(=O)NC(C)C(=O)NC(CCC(N)=O)C(=O)OCc1ccccc1)C(O)C(O)COC(=O)CCNc1c2ccccc2nc2cccc([N+](=O)[O-])c12 (stereo not given in full)	7.44 µM	7.88 µM	10.7 µM	22.3 µM	12 µM	–	9.62 µM	4.39	13.2 µM	20.3 µM	–	–	–	–	–	–	–
COc1ccc2c(c1)-c1nn(CCCN(C)C)c3ccc([N+](=O)[O-])c(c13)N2	4.69 µM and 3.65 µM	2.46 µM and 3.05 µM	4.24 µM and 13.8 µM	4.22 µM and 9.84 µM	1.86 µM and 4.99 µM	11.4 µM and 2.27 µM	5.57 µM and 12.1 µM	25.5	3.46 µM and 9.7 µM	3.26 µM and 10.9 µM	0.0633	0.202 µM and 0.543 µM	0.393 µM and 1 µM	0.668 µM and 0.308 µM	0.145 µM and 0.338 µM	0.356 µM and 1.35 µM	0.455 µM and 1.1 µM
COc1ccc(C(=O)C#Cc2c[nH]c(=O)[nH]c2=O)cc1	26.7 µM	28 µM	46.7 µM	> 54.4 µM	30.4 µM	–	37.3 µM	41.6	31 µM	27.4 µM	–	–	–	–	–	–	–
